According to publication PMC4231056, “Dihydroflavonol 4-Reductase Genes Encode Enzymes with Contrasting Substrate Specificity and Show Divergent Gene Expression Profiles in Fragaria Species” (PLoS ONE, 2014):

Legend:
[1] = target: T1, DFR2s (recombinant, F. vesca) (Fragaria vesca, UniProt A0A0A0PVL5); experiment: radiolabelled turnover assay, yeast protein preparation; format: biochemical; conditions: NADPH; labelled compound (14C)
T1 construct: gene DFR; full-length ORF, 349 residues; expressed in yeast from pYES vector; not purified; result stated for all clones together
T1 sequence (A0A0A0PVL5 1-349): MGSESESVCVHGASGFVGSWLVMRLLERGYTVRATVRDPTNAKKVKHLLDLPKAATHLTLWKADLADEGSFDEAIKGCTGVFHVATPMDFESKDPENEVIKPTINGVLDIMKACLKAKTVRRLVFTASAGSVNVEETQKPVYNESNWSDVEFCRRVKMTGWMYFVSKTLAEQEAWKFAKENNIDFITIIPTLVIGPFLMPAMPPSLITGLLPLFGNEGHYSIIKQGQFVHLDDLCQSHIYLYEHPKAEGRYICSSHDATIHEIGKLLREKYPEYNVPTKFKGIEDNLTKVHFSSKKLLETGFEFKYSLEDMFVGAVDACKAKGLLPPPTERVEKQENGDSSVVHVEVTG

[2] = target: T2, DFR1s (recombinant, F. vesca) (Fragaria vesca, UniProt A0A0A0PTI9); experiment: as above; format: biochemical; conditions: NADPH; labelled compound (14C)
T2 construct: gene DFR; full-length ORF, 333 residues; expressed in yeast from pYES vector; not purified; result stated for all clones together
T2 sequence (A0A0A0PTI9 1-333): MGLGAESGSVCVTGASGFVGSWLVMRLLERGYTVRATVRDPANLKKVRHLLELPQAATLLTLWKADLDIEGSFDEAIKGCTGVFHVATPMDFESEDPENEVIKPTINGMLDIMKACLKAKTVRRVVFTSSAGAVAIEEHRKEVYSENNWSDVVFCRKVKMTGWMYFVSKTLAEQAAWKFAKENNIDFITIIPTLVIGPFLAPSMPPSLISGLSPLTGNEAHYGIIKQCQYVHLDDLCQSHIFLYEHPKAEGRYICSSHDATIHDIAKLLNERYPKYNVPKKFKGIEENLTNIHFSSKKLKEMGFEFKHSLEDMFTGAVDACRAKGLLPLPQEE

[3] = substrate: O=C1c2c(O)cc(O)cc2O[C@H](c2cc(O)c(O)c(O)c2)[C@H]1O; experiment: radiolabelled TLC assay, Lineweaver-Burk, yeast protein preparation; format: biochemical, Fragaria x ananassa; conditions: NADPH; optimised conditions (pH optimum 5.75); labelled compound (14C); K cat is per kg protein, a specific rate
Description: (§1) radiolabelled TLC assay, Lineweaver-Burk, yeast protein preparation on DFR2 (recombinant, KC894055)

[4] = substrate: O=C1c2c(O)cc(O)cc2O[C@H](c2ccc(O)c(O)c2)[C@H]1O; experiment: as above; format: biochemical, Fragaria x ananassa; conditions: NADPH; optimised conditions (pH optimum 6.25); labelled compound (14C); K cat is per kg protein, a specific rate
Description: as §1

[5] = substrate: O=C1c2c(O)cc(O)cc2O[C@H](c2ccc(O)cc2)[C@H]1O; experiment: as above; format: biochemical, Fragaria x ananassa; conditions: NADPH; optimised conditions (pH optimum 6.00); labelled compound (14C); K cat is per kg protein, a specific rate
Description: radiolabelled TLC assay, Lineweaver-Burk, yeast protein preparation on DFR1 (recombinant, KC894048)

## O=C1c2c(O)cc(O)cc2O[C@H](c2ccc(O)c(O)c2)[C@H]1O [DHQ]
[1]
  radiolabelled turnover assay, yeast protein preparation: The recombinant DFR2s converted DHQ and DHM to leucocyanidin and leucodelphinidin

## O=C1c2c(O)cc(O)cc2O[C@H](c2cc(O)c(O)c(O)c2)[C@H]1O [DHM]
[1]
  radiolabelled turnover assay, yeast protein preparation: The recombinant DFR2s converted DHQ and DHM to leucocyanidin and leucodelphinidin

## O=C1c2c(O)cc(O)cc2O[C@H](c2ccc(O)cc2)[C@H]1O [DHK]
[2]
  radiolabelled turnover assay, yeast protein preparation: Recombinant DFR1 s, in contrast, were selective for DHK

B1: DFR2 (recombinant, KC894055) (Fragaria x ananassa) (protein)
chain: MGSESESVCVTGASGFVGSWLVMRLLERGYTVRATVRDPTNAKKVKHLLDLPKAATHLTLWKADLADEGSFDEAIKGCSGVFHVATPMDFESKDPENEVIKPTINGVLDIMKACLKAKTVRRLVFTASAGSVNVEETQKPVYNESNWSDVEFCRRVKMTGWMYFVSKTLAEQEAWKFAKENNIDFITIIPTLVIGPFLMPAMPPSLITGLSPLFGNEGHYSIIKQGQFVHLDDLCQSHIYLYEHPKAEGRYICSSHDATIHEIAKLLREKYPEYNVPTKFKGIEDNLTKVHFSSKKLLETGFEFKYSLEDMFVGAVDACKAKGLLPPPTERVEKQEAGDSGVVHVEVTG
notes: full-length ORF, 349 residues; expressed in yeast INVSc1 from pYES2.1/V5-His-TOPO; reverse primer holds the stop codon; cell protein preparation, not purified
[3]
  Km: 2.3 µM
[4]
  Km: 0.40 µM

B2: DFR1 (recombinant, KC894048) (Fragaria x ananassa) (protein)
chain: MGLGAESGSVCVTGASGFVGSWLVMRLLEHGYTVRATVRDPANLKKVRHLLELPQAATRLTLWKADLDVEGSFDEAIKGCTGVFHVATPMDFESEDPENEVIKPTINGMLDIMKACLKAKTVRRVVFTSSAGAVAIEEHRKEVYSENNWSDVVFCRKVKMTGWMYFVSKTLAEQAAWKFAKENNIDFITIIPTLVIGPFLAPSMPPSLISGLSPLTGNEAHYGIIKQCQYVHLDDLCQSHIFLYEHPKAEGRYICSSHDATIHDIAKLLNEKYPKYNVPKKFKGIEENLTNIHFSSKKLKEMGFEFKHSLEDMFTGAVDACREKGLLPLPQEEETEKRRAG
notes: full-length ORF, 341 residues; expressed in yeast INVSc1 from pYES2.1/V5-His-TOPO; reverse primer starts with the stop codon; cell protein preparation, not purified
[5]
  Km: 0.40 µM
